From US12698262B2, “Potassium salt of 2-[(4S)-8-fluoro-2-[4-(3-methoxyphenyl)piperazin-1-yl]-3-[2-methoxy-5-(trifluoromethyl)phenyl]-4H-quinazolin-4-yl]acetic acid” (AIC246 AG & Co. KG, priority 2020, dated 2026)
Values joined by “and” are separate entries in the source; they are usually repeats but may differ in a detail not shown here. Equal entries are not always repeated.

Assay: Solubility test in buffers of different pHs (excess salt, HPLC determination of dissolved letermovir, final pH of mixture)
Type: physicochemical
Conditions: for Solubility / solubility at 2 h: stirred two hours at room temperature; for Solubility / Final pH / solubility at 2 h: Entries 1-3; for Final pH: final mixture; for solubility at 2 h: thermodynamic from solid
Protocol: Single Crystal X-ray Diffraction (SCXRD): The measured crystal was selected using a Zeiss stereomicroscope using polarized light and prepared under inert conditions immersed in perfluoropolyether as protecting oil for manipulation. Crystal structure determination was carried out using a Rigaku diffractometer equipped with a Pilatus 200K area detector, a Rigaku MicroMax-007HF microfocus rotating anode with MoKα radiation, Confocal Max Flux optics and an Oxford Cryosystems low temperature device Cryostream 700 plus (T=−173° C.). Full-sphere data collection was used with ω and φ scans. Programs used: Data collection and reduction with CrysAlisPro (Rigaku OD, 2015). V/0.60 A and absorption correction with Scale3 Abspack scaling algorithm (CrysAlisPro 1.171.39.12b (Rigaku OD, 2015)). Crystal structure solution was achieved using the computer program SHELXT (Sheldrick, G. M. Acta Cryst. 2015 A71, 3-8.) and visualized using the program SHELXle (C. B. Huebschle, G. M. Sheldrick & B. Dittrich; J. Appl. Cryst., 2011 44, 1281-1284). Missing atoms were subsequently located from difference Fourier synthesis and added to the atom list. Least-squares refinement on F0^2 using all measured intensities was carried out using the program SHELXL 2015 (SHELXL; Sheldrick, G. M. Acta Cryst., 2015 A71, 3-8.). All non-hydrogen atoms were refined including anisotropic displacement parameters. High Performance Liquid Chromatography (HPLC): • Instrument: Thermo Scientific Ultimate 3000 UHPLC • Column: Agilent Zorbax Eclipse XDB C-18, 150×4.6 mm, 5 μm • Flow rate: 1.0 ml/min • Solvent A: 0.1% formic acid in water • Solvent B: 0.1% formic acid in 100% methanol • Stop time: 27 minutes • Injection volume: 10 μl • Column temperature: 35° C. • Wavelength: 260 nm • Autosampler temperature: 10° C.
An excess of letermovir potassium mixed solvate (the salt of Example 1) or letermovir sodium mixed solvate (the salt of Example 4) was added to 2 mL of the corresponding buffer of different pHs. The saturated suspensions were stirred for two hours at room temperature. […] The final pH of the mixtures was also determined.

Structure (SMILES): COc1cccc(N2CCN(C3=Nc4c(F)cccc4[C@H](CC(=O)[O-])N3c3cc(C(F)(F)F)ccc3OC)CC2)c1.[K+] (mixture of isomers) [potassium salt mixed solvate, potassium 2-[(4S)-8-fluoro-2-[4-(3-methoxyphenyl)piperazin-1-yl]-3-[2-methoxy-5-(trifluoromethyl)phenyl]-4H-quinazolin-4-yl]acetate]
- Solubility (buffer pH 2): 10.63 mg/mL
- Solubility (buffer pH 5): 16.50 mg/mL
- Solubility (buffer pH 6): 1.17 mg/mL
- Final pH (initial buffer pH 1): 4.5 and 6.6
- Final pH (initial buffer pH 2): 7.2 and 7.3
- Final pH (initial buffer pH 5): 7.1 and 7.2
- Final pH (initial buffer pH 6): 6.3
- Final pH (initial buffer pH 7): 7.1 and 7.0 and 7.4
- Final pH (initial buffer pH 8): 7.7 and 7.6
- Final pH (initial buffer pH 9): 7.7
- solubility at 2 h (pH 2, simulated gastric fluid, buffer pH 2): 14.4 mg/mL
- solubility at 2 h (pH 5, aqueous buffer, buffer pH 5): 14.3 mg/mL
- solubility at 2 h (pH 6, aqueous buffer, buffer pH 6): 1.27 mg/mL
- solubility at 2 h (pH 8, aqueous buffer, buffer pH 8): > 100 mg/mL
- solubility at 2 h (pH 9, aqueous buffer, buffer pH 9): > 100 mg/mL

Structure (SMILES): COc1cccc(N2CCN(C3=Nc4c(F)cccc4[C@H](CC(=O)[O-])N3c3cc(C(F)(F)F)ccc3OC)CC2)c1.[K+] [crystalline potassium salt of letermovir, potassium 2-[(4S)-8-fluoro-2-[4-(3-methoxyphenyl)piperazin-1-yl]-3-[2-methoxy-5-(trifluoromethyl)phenyl]-4H-quinazolin-4-yl]acetate]
- pH of the final solution (aqueous medium, when letermovir concentration is above 100 mg/mL): 7.4-7.8 and 7-8
- concentration levels achieved by dissolving in aqueous medium (aqueous medium, with respect to letermovir free base): above 100 mg/mL
